Laboratory results as given in patent US6498254B1, “Antiretroviral compounds and compositions” (Uniroyal Chemical Company, Inc., priority 2001, dated 2002).
Converted amounts (≈) assume the structure as drawn. Where two headings read alike, the source gives them in different places.

Key:
HIV-2 (ROD) = test: Inhibition of HIV-2 syncytium formation in CEM cells; type: cell-based; conditions: for EC50: Human immunodeficiency virus 2, CCRF-CEM, read-out: EC50 (μg/ml) HIV-2; for HIV-2 % Protection: protection of CEM cells against virus-induced cytopathicity at the compound concentration in the previous column
Text: (§1) The cell type used to determine activity of the compounds of the invention herein, i.e., the test compounds, against HIV was human T-lymphoblast (CEM) cells obtained from the American Tissue Cell Culture Collection (Rockville, Md.). HIV-1 (IIIB) was originally obtained from the culture of persistently HIV-1 infected H9 cells and was provided by R. C. Gallo and M. Popovic (National Cancer Institute, National Institutes of Health, Bethesda, Md.). HIV-2 (ROD) was originally obtained from L. M. Montagnier (Pasteur Institute, Paris, France).
(§2) To determine the antiviral activity of the test compounds, CEM cells were suspended at a cell density of approximately 300,000 cells per ml of culture medium and infected with approximately 100 CClD50 (100 CClD50 being the 50% cell culture infective dose) of HIV-1 (IIIB) or HIV-2 (ROD)). Then 100 μl of the infected cell suspensions was added to 200 μl micro titer plate wells containing 100 μl of appropriate serial (5-fold) dilutions of the test compounds. The inhibitory effect of the test compounds on HIV-1 or HIV-2 syncytium formation in CEM cells was examined microscopically on day four post infection. The 50% effective concentration (EC50) was defined as the test compound concentration that inhibits syncytium formation in the HIV-1 or HIV-2 infected cell cultures by 50%.
(§3) In some cases, the compounds had considerable cytotoxicity to CEM cells which made determination of the EC50 difficult. In these cases, the percent protection of the cells against virus-induced cytopathicity by the test compounds at the indicated compound concentration in the previous column is given.

CMV Davis strain = test: Activity against HCMV: virus-induced cytopathicity in HEL cells; type: cell-based, human cytomegalovirus (HCMV); conditions: for IC50: read-out: Antiviral IC50 (μg/ml) Davis strain; for Antiviral % Inhibition Davis strain: estimate of percent protection of HEL cells at the compound concentration
Protocol: Confluent HEL cells grown in […] microtiter plates were inoculated with CMV at an input of 100 PFU (plaque forming units) per well. After a one to two hour incubation period, residual virus was removed and the infected cells were further incubated with MEM (Minimal Essential Medium) (supplemented with 2% inactivated Fetal Calf Serum (FCS), […], and 0.3% sodium bicarbonate) containing varying concentrations of the test compounds. Antiviral activity was expressed as EC50 (50% effective concentration), or test compound concentration required to reduce virus-induced cytopathicity after seven days by 50% compared to the untreated control.
In some cases, the compounds had considerable cytotoxicity against HEL cells, which made determination of the EC50's difficult. In these cases, an estimate of the percent protection at the compound concentration indicated in the previous columns is given.

HIV-1 (IIIB) = test: Inhibition of HIV-1 syncytium formation in CEM cells; type: cell-based; conditions: for EC50: read-out: EC50 (μg/ml) HIV-1; for HIV-1 % Protection: protection of CEM cells against virus-induced cytopathicity at the compound concentration in the previous column
Text: as §1, §2, §3

[1] = HIV-2 (ROD) infected CEM cells, syncytium formation, day four post infection
[2] = Human betaherpesvirus 5, 168 h, CMV-infected HEL cells, virus-induced cytopathicity after seven days
[3] = Human immunodeficiency virus 1, CCRF-CEM, HIV-1 (IIIB) infected CEM cells, syncytium formation, day four post infection
[4] = Human betaherpesvirus 5, HEL, 168 h
[5] = Human immunodeficiency virus 1, IIIB, CCRF-CEM
[6] = CMV-infected HEL cells, virus-induced cytopathicity after seven days
[7] = HIV-1 (IIIB) infected CEM cells, syncytium formation, day four post infection

Molecule | EC50 (HIV-2 (ROD); [1]) [µg/mL] | IC50 (CMV Davis strain; [2]) [µg/mL] | Antiviral % Inhibition Davis strain (CMV Davis strain) [%] | melting point [°C] | EC50 (HIV-1 (IIIB); [3]) [µg/mL] | HIV-2 % Protection (HIV-2 (ROD)) [%] | HIV-1 % Protection (HIV-1 (IIIB)) [%] | EC50 (HIV-2 (ROD)) [µg/mL] | IC50 (CMV Davis strain; [4]) [µg/mL] | EC50 (HIV-1 (IIIB); [5]) [µg/mL] | EC50 (μg/ml) HIV-2 (HIV-2 (ROD); [1]) [µg/mL] | Antiviral IC50 (μg/ml) Davis strain (CMV Davis strain; [6]) [µg/mL] | EC50 (μg/ml) HIV-1 (HIV-1 (IIIB); [7]) [µg/mL]
O=[N+]([O-])c1cc(CS(=O)(=O)c2cccc[n+]2[O-])ccc1Cl [Compound 64, 2-[[(3-nitro-4-chlorophenyl)methyl]sulfonyl]pyridine-N-oxide] | 1.9 (≈ 5.78 µM) | > 5 | 10.0 | 168 to 170 | 1.5 (≈ 4.56 µM) | – | – | – | – | – | – | – | –
Cc1ccc(C)c(C(C)S(=O)(=O)c2cccc(Cl)[n+]2[O-])c1 (stereo not shown) [Compound 76, 2-[1-(2,5-dimethylphenyl)ethylsulfonyl]-6-chloropyridine-N-oxide] | 2.4 (≈ 7.37 µM) | > 9.1 | – | 197 to 200 | 0.9 (≈ 2.76 µM) | – | – | – | – | – | – | – | –
Cc1ccc(C)c(C(C)S(=O)(=O)c2cc(C)cc(C)[n+]2[O-])c1 (stereo not shown) [Compound 81, 2-[1-(2,5-dimethylphenyl)ethylsulfonyl]-4,6-dimethylpyridine-N-oxide] | > 20 | 8.6 (≈ 26.9 µM) | – | 201 to 204 | ≥ 20 | 0.0 | 37.5 | – | – | – | – | – | –
Cc1ccc(C)c(C(Cl)S(=O)(=O)c2ccccn2)c1 (stereo not shown) [Compound 106, 2[(2,5-dimethylphenyl)chloromethylsulfonyl]pyridine] | > 4 | 20 (≈ 67.6 µM) | – | 117 to 119 | 0.9 (≈ 3.04 µM) | 0.0 | – | – | – | – | – | – | –
Cc1ccc(C)c(CSc2cccc[n+]2C)c1 [Compound 142, 2[[(2,5-dimethylphenyl)methyl]thio]-1-methylpyridinium chloride] | – | – | – | – | – | 0.0 | 0.0 | > 4 | 3.4 | > 4 | – | – | –
O=[N+]([O-])c1cccnc1SCc1ccccc1 [Compound 146, 2-benzylthio-3-nitropyridine] | – | – | – | – | – | 37.5 | – | ≥ 20 | 40 (≈ 162 µM) | 2.3 (≈ 9.34 µM) | – | – | –
Cc1ccc(C)c(CSc2ccccn2)c1 [Compound 148, 2-((2,5-dimethylphenyl)methylthio) pyridine] | – | – | – | – | – | – | – | > 20 | 0.4 (≈ 1.74 µM) | > 20 | – | – | –
[O-][n+]1c(Cl)cccc1SCc1ccccc1 [Compound 149, 6-chloro-(2-benzylthio)pyridine-N-oxide] | – | – | – | 112 to 115 | – | – | – | 16 (≈ 63.6 µM) | 20 (≈ 79.4 µM) | 9 (≈ 35.8 µM) | – | – | –
Cc1ccc(C)c(CS(=O)(=O)c2ccccn2)c1 [Compound 150, 2-(2,5-dimethylbenzylsulfonyl)pyridine] | 20 (≈ 76.5 µM) | > 50 | 20.0 | – | 3.25 (≈ 12.4 µM) | – | – | – | – | – | – | – | –
[O-][n+]1cc(Cl)ccc1SCc1ccccc1 [Compound 151, 5-chloro-2(benzylthio)pyridine-N-oxide] | – | – | 20.0 | – | – | 0.0 | 0.0 | > 20 | > 20 | > 20 | – | – | –
CN1CCCC(CSc2cccc[n+]2[O-])C1 (stereo not shown) [Compound 156, 2-(N-methyl-3-piperidylmethylthio)pyridine-N-oxide] | – | – | 0.0 | – | – | 0.0 | – | > 100 | > 50 | 16 (≈ 67.1 µM) | – | – | –
Cc1ccc(C)c(CSc2ccccn2)c1.Cl [Compound 157, 2-(2,5-dimethylphenylmethylthio)pyridine hydrochloride] | ≥ 20 | > 50 | 0.0 | – | 6 | 37.5 | – | – | – | – | – | – | –
N#CC(=Cc1ccccc1)Sc1cccc[n+]1[O-] [Compound 158, 2-(1-cyano-2-phenylethenethio) pyridine-N-oxide] | – | – | – | – | – | 0.0 | 0.0 | – | – | – | >4 | 3.6 | >4
COc1ccc(C=C(C#N)Sc2cccc[n+]2[O-])cc1 [Compound 159, 2-[1-cyano-2-(p-methoxyphenyl)ethenethio]pyridine-N-oxide] | – | – | – | – | – | 25.0 | 0.0 | > 20 | 10 (≈ 35.2 µM) | > 20 | – | – | –
COc1cc(C=C(C#N)Sc2cccc[n+]2[O-])cc(OC)c1OC [Compound 160, 2-[1-cyano-2-(3,4,5-trimethoxyphenyl)ethenethio]pyridine-N-oxide] | – | – | – | – | – | 0.0 | 0.0 | > 20 | 7 (≈ 20.3 µM) | > 20 | – | – | –
Cc1ccc(C)c(C(C)S(=O)(=O)c2ccccn2)c1 (stereo not shown) [Compound 161, 2-[1-(2,5-dimethylphenyl)ethylsulfonyl]pyridine] | > 100 | 38 (≈ 138 µM) | – | – | 9.5 (≈ 34.5 µM) | 0.0 | – | – | – | – | – | – | –
Cc1ccc(C)c(C(C)Sc2cc(C)c3ccccc3n2)c1 (stereo not shown) [Compound 162, 2-[[1-(2,5-dimethylphenyl)ethyl]thio]-4-methylquinoline] | – | – | – | 84 to 85 | – | 0.0 | 0.0 | > 0.16 | 1.6 (≈ 5.2 µM) | > 0.8 | – | – | –
ethyl-N-[4-(pyridyl-N-oxide-2-sulfonylmethyl)phenylcarbonyl]carbamate [Compound 60] | – | – | 0.0 | – | – | – | – | – | – | – | 17.0 | >50 | 40.00
